Measured values published in patent publication US5677322A, “Maillard reaction inhibitor” (Otsuka Pharmaceutical Co., Ltd., priority 1993, dated 1997).

Each compound was assayed on Lysozyme (assay: Inhibition of Maillard reaction: suppression of lysozyme dimer formation (lysozyme + fructose, SDS-PAGE)). Conditions: inhibition ratio of test compound to aminoguanidine (positive control); lysozyme 10 mg/ml, fructose 100 mM, 0.2M sodium phosphate pH 7.4, 37° C., 3 days; dimer amount by SDS-PAGE.
Type: biochemical
Experimental: Lysozyme and fructose were dissolved in a buffer solution of 0.2M sodium phosphate (pH 7.4) to respectively give concentrations of 10 mg/ml and 100 mM. After incubating at 37° C. for 3 days, a definite amount of the mixture was taken out and electrophoresed with the use of SDS-PAGE. After the completion of the electrophoresis, the gel was stained with 0.2% Coomassie Brilliant Blue R-250 and the amount of the dimer thus formed was determined.
Each of the test compounds was added before the initiation of the incubation and the effect of suppressing the formation of the dimer was examined at various concentrations, whereby the IC50 value was obtained. As a positive control, aminoguanidine, which is a known glycation inhibitor, was employed and the inhibition ratio of the test compound to aminoguanidine (IC50 of aminoguanidine/IC50 of test compound) was calculated.

IC50 of aminoguanidine/IC50 of test compound	Compound
11.0	CC(C)=NN=C1NC(=O)C(Cc2ccc(OCc3cccnc3)cc2)S1 (centres unmarked) [Test compound 48, 2-Isopropylidenehydrazono-5-[4-(3-pyridylmethoxy)benzyl]thiazolidin-4-one]
4.0	CC(C)=NN=C1NC(=O)C(Cc2c[nH]cn2)N1 (centres unmarked) [Test compound 78, 5-(4-Imidazolylmethyl)-2-isopropylidenehydrazonoimidazolidin-4-one]
2.6	CC(C)=NN=C1NC(=O)C(CC(C)C)N1 (centres unmarked) [Test compound 67, 2-Isopropylidenehydrazono-5-(2-methylpropyl)imidazolidin-4-one]
0.6	2-Cyclohexylmethylenehydrazono-5-(N-phenylcarbamoylmethyl)thiazolidin-4-one [Test compound 83]
7.0	CC(C)=NN=C1NC(=O)C(CC(=O)NC(C)c2ccccc2)S1 (centres unmarked) [Test compound 72, 2-Isopropylidenehydrazono-5-[N-(1-phenylethyl)carbamoylmethyl]thiazolidin-4-one]
6.1	COC(=O)c1c(F)cccc1NC(=O)CC1SC(=NN=C(C)C)NC1=O (centres unmarked) [Test compound 118, 5-[N-(3-fluoro-2-methoxycarbonylphenyl)carbamoylmethyl]-2-isopropylidenehydrazonothiazolidin-4-one]
3.1	2-Isopropylidenehydrazono-5(S)-(N-phenylcarbamoylmethyl)thiazolidin-4-one [Test compound 110]
33.7	COc1ccc(NC(=O)Cc2csc(NN=C(C)C)n2)cc1OC [Test compound 94, 4-[N-(3,4-dimethoxyphenyl)carbamoylmethyl]-2-isopropylidenehydrazinothiazole]
4.6	CC(C)=NN=C1NC(=O)C(CC(=O)NCc2cccnc2)S1 (centres unmarked) [Test compound 66, 2-Isopropylidenehydrazono-5-[N-(3-pyridylmethyl)carbamoylmethyl]thiazolidin-4-one]
0.8	NN=C1NC(=O)C(CC(=O)Nc2ccccc2)S1 (centres unmarked) [Test compound 81, 2-Hydrazono-5-(N-phenylcarbamoylmethyl)thiazolidin-4-one]
36	CC(C)=NN=C1NC(=O)C(CC(=O)NCc2cccs2)S1 (centres unmarked) [Test compound 70, 2-isopropylidenehydrazono-5-[N-(2-thienylmethyl)carbamoylmethyl]thiazolidin-4-one]
0.91	CCOC(=O)CN1C(=O)C(CC(=O)Nc2ccccc2)SC1=NN=C(C)C (centres unmarked) [Test compound 61, 3-Ethoxycarbonylmethyl-5-(N-phenylcarbamoylmethyl)-2-isopropylidenehydrazonothiazolin-4-one]
26	COC(=O)c1ccccc1NC(=O)CC1SC(=NN=C(C)C)NC1=O (centres unmarked) [Test compound 93, 2-Isopropylidenehydrazono-5-[N-(2-methoxycarbonylphenyl)carbamoylmethyl]thiazolidin-4-one]
2.8	2-Isopropylidenehydrazono-5(R)-(N-phenylcarbamoylmethyl)thiazolidin-4-one [Test compound 109]

Continued, compound first:

Compound	IC50 of aminoguanidine/IC50 of test compound
CC(C)=NN=C1NC(Cc2ccc(O)cc2)C(=O)N1Cc1ccccc1 (centres unmarked) [Test compound 9, 3-Benzyl-5-(4-hydroxybenzyl)-2-isopropylidenehydrazonoimidazolidin-4-one]	1.3
CC(C)=NN=C1NC(=O)C(Cc2ccc(OCC3CCCCC3)cc2)N1 (centres unmarked) [Test compound 35, 5-[4-(Cyclohexylmethyloxy)benzyl]-2-isopropylidenehydrazonoimidazolidin-4-one]	0.8
CC(C)=NN=C1NC(=O)C(C)N1 (centres unmarked) [Test compound 2, 2-Isopropylidenehydrazono-5-methylimidazolidin-4-one]	2.8
2-Isopropylidenehydrazono-5-[N-(4-methylthiophenyl)carbamoylmethyl]thiazolidin-4-one [Test compound 55]	5.3
CC(C)=NN=C1NC(=O)C(CC(=O)NC2CCCCC2)S1 (centres unmarked) [Test compound 18, 5-(N-cyclohexylcarbamoylmethyl)-2-isopropylidenehydrazonothiazolidin-4-one]	1.5
CCOC(=O)c1ccc(NC(=O)CC2SC(=NN=C(C)C)NC2=O)cc1 (centres unmarked) [Test compound 15, 5-[N-(4-ethoxycarbonylphenyl)carbamoylmethyl]-2-isopropylidenehydrazonothiazolidin-4-one]	1.2
4-[4-(4-Chlorobenzyloxy)phenyl]-2-isopropylidenehydrazinothiazole [Test compound 27]	3.1
CC(C)=NN=C1NC(=O)C(CC(=O)Nc2ccccc2)S1 (centres unmarked) [Test compound 32, 2-isopropylidenehydrazono-5-(N-phenylcarbamoylmethyl)thiazolidin-4-one]	55
CSc1ccc(CC2SC(=NN=C(C)C)NC2=O)cc1 (centres unmarked) [Test compound 11, 2-isopropylidenehydrazono-5-(4-methylthiobenzyl)thiazolidin-4-one]	1.2
CC(C)=NN=C1NC(=O)C(Cc2ccc(Sc3ccccc3)cc2)N1 (centres unmarked) [Test compound 10, 2-Isopropylidenehydrazono-5-(4-phenylthiobenzyl)imidazolidin-4-one]	5.4
5-[N-(2-carboxy-4-methylphenyl)carbamoylmethyl]-2-isopropylidenehydrazonothiazolidin-4-one [Test compound 54]	4.2
CC(C)=NN=C1NC(=O)C(Cc2ccc(OCc3ccc(Cl)cc3)cc2)N1 (centres unmarked) [Test compound 6, 5-[4-(4-Chlorobenzyloxy)benzyl]-2-isopropylidenehydrazonoimidazolidin-4-one]	8.3
CC(C)=NN=C1NC(=O)C(Cc2ccc(O)c(O)c2)N1 (centres unmarked) [Test compound 42, 5-(3,4-Dihydroxybenzyl)-2-isopropylidenehydrazonoimidazolidin-4-one]	78.9
5-[N-(2-carboxyphenyl)carbamoylmethyl]-2-isopropylidenehydrazonothiazolidin-4-one [Test compound 92]	0.94
5-[N-(4-bromophenyl)carbamoylmethyl]-2-isopropylidenehydrazonothiazolidin- 4-one [Test compound 56]	10.2
